Assay results taken from EPA's ToxValDB 9.5 (doi:10.2903/j.efsa.2016.4612).

Legend:
Folsomia candida = conditions: chronic/long-term; duration: 28 days; reproduction
Tagia sp. = conditions: chronic/long-term; duration: 56 days
Landoltia sp. = conditions: acute; duration: 7 days; other
Lepomis macrochirus = conditions: acute; duration: 96 hours; mortality
Rattus norvegicus = conditions: for LD50: acute, gavage, mortality
Apis mellifera = conditions: acute, duration: 48 hours, mortality
Colinus virginianus = conditions: oral
Daphnia magna = conditions: chronic/long-term; duration: 21 days; reproduction
Oncorhynchus mykiss = conditions: acute; duration: 96 hours; mortality
Oryctolagus sp. = conditions: reproduction developmental; clinical signs
Pimephales promelas = conditions: chronic/long-term; duration: 35 days; reproduction

SMILES: CCCOc1nn(C(N)=O)c(=O)n1C
- NOEC (Folsomia candida): 10 mg/kg
- NOEC (Tagia sp.): 316 mg/kg

SMILES: CCCOc1nn(C(=O)NS(=O)(=O)c2ccccc2C(=O)O)c(=O)n1C
- NOEC (Landoltia sp.): 14.2 mg/L
- LC50 (Lepomis macrochirus): > 87.7 mg/L

SMILES: O=C1NS(=O)(=O)c2cccc(O)c21 [4-hydroxy-1H-1,2-benzisothiazole-1,1,3(2H)-trione]
- NOEC (Folsomia candida): 10 mg/kg
- NOEC (Tagia sp.): 5 mg/kg

SMILES: COC(=O)c1ccccc1S(=O)(=O)NC(=O)n1nc(OCC(C)O)n(C)c1=O (stereo not given) [Propoxycarbazone-2-hydroxypropoxy]
- LD50 (Rattus norvegicus; oral): > 5000 mg/kg-day
- NOAEL (Rattus norvegicus; short-term, duration: 28 days, oral, diet): > 880 mg/kg-day

SMILES: CCCOc1nn(C(=O)[N-]S(=O)(=O)c2ccccc2C(=O)OC)c(=O)n1C.[Na+] [Propoxycarbazone-sodium]
- LD50 (Apis mellifera; dermal): > 100 µg/piece
- LD50 (Apis mellifera; oral, unspecified): > 110 µg/piece
- LD50 (Colinus virginianus; acute, mortality): > 2000 mg/kg-day
- NOEL (Colinus virginianus; reproduction developmental, duration: 25 weeks, diet, reproduction): 45 mg/kg-day
- NOEC (Daphnia magna): 13.8 mg/L
- NOEC (Folsomia candida): 500 mg/kg
- LC50 (Oncorhynchus mykiss): > 77.2 mg/L
- NOAEL (Oryctolagus sp.): 100 mg/kg-day
- NOEC (Pimephales promelas): 5.83 mg/L
- LD50 (Rattus norvegicus; oral): > 5000 mg/kg-day
- NOAEL (Rattus norvegicus; chronic, duration: 2 years, clinical chemistry): 43 mg/kg-day
- NOEC (Tagia sp.): 1.25 mg/kg
